Consider three molecules from patent publication US6642241B1, “Alkylamino-substituted bicyclic nitrogen heterocycles” (Syntex (U.S.A.) LLC, priority 1999, dated 2003).

Molecules are shown by their SMILES. Where a name gives a salt, the structure may show the parent alone.

Usually melting point stands for the temperature, or range, at which the solid turns liquid. `COCCN1C(=O)N(c2ccccc2Cl)Cc2cnc(NC(C)C)nc21` (as salt: hydrochloride) [Example 2b, 3-(2-chloro-phenyl)-1-(2-methoxy-ethyl)-7-isopropylamino-3,4-dihydropyrimido[4,5-d]pyrimidin-2(1H)-one] yielded a melting point of 126 to 131.6 °C.
Then `CCOC(=O)CN1C(=O)N(c2ccccc2Cl)Cc2cnc(NC(C)C)nc21` [Example 1d, 3-(2-chloro-phenyl)-1-ethoxycarbonylmethyl-7-isopropylamino-3,4-dihydropyrimido[4,5-d]pyrimidin-2(1H)-one], with 188.8 to 191.4 °C; and `CC(C)Nc1ncc2c(n1)N(CC(=O)O)C(=O)N(c1ccccc1Cl)C2` [Example 1e, 3-(2-chloro-phenyl)-1-carboxymethyl-7-isopropylamino-3,4-dihydropyrimido[4,5-d]pyrimidin-2(1H)-one], with 172 to 188 °C.
